Where two headings read alike, the source gives them in different places.
How the values were obtained:
Type in all cases: cell-based
[1] = test system: Aspergillus fumigatus ATCC204305; assay: microbe, parasite or virus in culture
Protocol: (§1) Compounds 1–8 were tested for antifungal activities against Aspergillus fumigatus ATCC204305 and Aspergillus niger ATCC16404 using broth microdilution antifungal susceptibility testing, according to previously published protocol. In the experiments, the RPMI-1640 medium containing 10.4 g/L of RPMI-1640 medium (R8755; Sigma, St. Louis, MO, USA), 6.7 g/L of Yeast Nitrogen Base (YNB; Becton, Dickinson and Company, Franklin Lakes, NJ, USA), 1.8% (w/v) glucose, and 40 mM HEPES (pH = 7.1) was used as culture medium. The inoculum per well for a 96-well microplate was 2 × 10^4 fresh conidia/mL (150 µL/well), which were incubated for 24 h at 37 ℃. The minimal inhibitory concentration (MIC) in the assay were performed using resazurin at 0.002% (w/v) of final concentration.

[2] = test system: Aspergillus niger ATCC16404; assay: microbe, parasite or virus in culture
Protocol: as §1

[3] = test system: human embryonic lung fibroblast cell MRC-5; assay: Cytotoxicity, MTT assay; settings: MRC-5, MTT, positive control
[4] = test system: small cell lung cancer cell line H446; assay: Cytotoxicity, MTT assay; settings: printed H466, MTT, positive control
[5] = test system: non-small cell lung cancer cell line A549; assay: Cytotoxicity, MTT assay; settings: positive control
[6] = test system: small cell lung cancer cell line H1688; assay: Cytotoxicity, MTT assay; settings: positive control

| MIC ([1]; ATCC204305, Table S1, broth microdilution, RPMI-1640 + YNB + 1.8% glucose + 40 mM HEPES pH 7.1, 2 × 10^4 conidia/mL, 24 h, 37 °C, resazurin 0.002%, read-out: MIC) [µM] | MIC ([1]; ATCC204305, one range given for A. fumigatus and A. niger together, read-out: MIC values) [µM] | MIC ([1]; ATCC204305, text of method and conclusions, unit printed as μg/mL, read-out: MICs) [µg/mL] | MIC ([2]; ATCC16404, Table S1, broth microdilution, RPMI-1640 + YNB + 1.8% glucose + 40 mM HEPES pH 7.1, 2 × 10^4 conidia/mL, 24 h, 37 °C, resazurin 0.002%, read-out: MIC) [µM] | MIC ([2]; ATCC16404, one range given for A. fumigatus and A. niger together, read-out: MIC values) [µM] | MIC ([2]; ATCC16404, text of method and conclusions, unit printed as μg/mL, read-out: MICs) [µg/mL] | Structure (SMILES) | IC50 [3] [µM] | IC50 [4] [µM] | IC50 [5] [µM] | IC50 [6] [µM] |
| --- | --- | --- | --- | --- | --- | --- | --- | --- | --- | --- |
| 1 | 1 | 1 | 1 | 1 | 1 | C[C@@H]1[C@H](O)[C@@H](C)/C=C/C=C/C=C/C=C/C=C/C=C/C=C/[C@H](O[C@@H]2O[C@H](C)[C@@H](O)[C@H](N)[C@@H]2O)C[C@@H]2O[C@](O)(C[C@@H](O)C[C@@H](O)[C@H](O)CC[C@@H](O)C[C@@H](O)CC(=O)O[C@H]1C)C[C@H](O)[C@H]2C(=O)O [Amphotericin B] | – | – | – | – |
| – | – | – | – | – | – | N.N.[Cl][Pt][Cl] [Cisplatin] | 23.8 | 1.9 | 3.8 | 3 |
